The test system of experiment [1] is MIA PaCa-2 cells (K-Ras G12C). In words: Ras-SOS cellular growth inhibition assay (CellTiter-Glo, 3D). Format: cell-based. The note with it: Homo sapiens. Put shortly:
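Growth read by CellTiter-Glo luminescence about 5 days after dosing with 3-fold dilutions (9 points), added one day post-seeding. Cells: MIA PaCa-2, 3D culture on ultra-low-attachment surface, medium DMEM/Ham's F12 plus 10% FCS and 2.5% horse serum; IC50 by four-parameter fit.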

Experiment [2] concerns the target SOS1 (Homo sapiens (Human), UniProt Q07889). In words: Ras-SOS interaction assay (HTRF). Format: biochemical. (In TR-FRET formats the signal depends on donor and acceptor labels being close together.)
The subject of experiment [3] is NCI-H1975 cells (EGFR T790M L858R). The experiment can be described thus: EGFR-SOS cellular inhibition assay (CellTiter-Glo, 3D). The class given is cell-based. Conditions: Homo sapiens. On the technique in general: Cellular ATP, detected with luciferase, serves as a proxy for viable cell number.
Setting [4] is: MIA PaCa-2, 120 h, MIA PaCa-2, 3D proliferation, about 5 days, read-out: Bio-Cell-Prolif-3D (MiaPaca2 IC50).
Setting [5] is: K-RasG13D utilized, read-out: IC50 inhibition of SOS.
Setting [6] is: K-RasG13D, read-out: IC50 value against SOS1.
Setting [7] is: 120 h, NCI-H1975, 3D proliferation, about 5 days, read-out: Bio-Cell-Prolif-3D (H1975 IC50).
The mark [8] stands for this setting: MIA PaCa-2, MIA PaCa-2, read-out: IC50 in inhibiting MIA PaCa-2 cell growth.
The mark [9] stands for this setting: NCI-H1975, EGFR T790M L858R, read-out: IC50 in inhibiting growth of NCI-H1975 cell line.

Where two headings read alike, the source gives them in different places.

Sequence of SOS1 (Q07889 564-1049): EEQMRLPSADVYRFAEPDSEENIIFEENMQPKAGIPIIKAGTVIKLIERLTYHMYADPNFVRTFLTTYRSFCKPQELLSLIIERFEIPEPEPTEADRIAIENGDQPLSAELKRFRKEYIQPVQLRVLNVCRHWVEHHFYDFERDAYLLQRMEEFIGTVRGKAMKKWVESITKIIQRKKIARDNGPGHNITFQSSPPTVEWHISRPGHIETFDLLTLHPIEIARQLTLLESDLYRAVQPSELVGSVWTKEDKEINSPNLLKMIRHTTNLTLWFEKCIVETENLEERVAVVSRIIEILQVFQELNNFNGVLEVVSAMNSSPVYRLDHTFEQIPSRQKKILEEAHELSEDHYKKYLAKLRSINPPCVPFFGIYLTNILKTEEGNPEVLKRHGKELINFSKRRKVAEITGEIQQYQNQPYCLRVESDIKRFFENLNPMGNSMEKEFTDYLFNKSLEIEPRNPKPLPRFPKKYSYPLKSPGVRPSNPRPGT

The IC50 is the concentration needed to halve the response being measured. Turning to `Cc1nc(N[C@H](C)c2cccc(C(F)F)c2F)c2cc(C3CCN(C(C)C)CC3)c(NC3COC3)nc2n1` [Compound 407, (R)-N4-(1-(3-(difluoromethyl)-2-fluorophenyl)ethyl)-6-(1-isopropylpiperidin-4-yl)-2-methyl-N7-(oxetan-3-yl)pyrido [2,3-d]pyrimidine-4,7-diamine], the IC50 in experiment [1] (setting [4]) was 1000 to 10000 nM; in experiment [2] (setting [5]), less than 100 nM; in experiment [2] (setting [6]), less than 50 nM; in experiment [3] (setting [7]) it was 1000 to 10000 nM.
For the molecule `CCN1CCN(c2cc3c(N[C@H](C)c4cccc(C(F)(F)F)c4F)ncnc3nc2OC)CC1` [Compound 196, (R)-6-(4-ethylpiperazin-1-yl)-N-(1-(2-fluoro-3-(trifluoromethyl)phenyl)ethyl)-7-methoxypyrido[2,3-d]pyrimidin-4-amine], the half-inhibitory concentration (IC50) is not above 1000 nM in experiment [1] (setting [4]); less than 500 nM in experiment [1] (setting [8]); less than 100 nM in experiment [2] (setting [5]); less than 50 nM in experiment [2] (setting [6]); not above 1000 nM in experiment [3] (setting [7]); less than 500 nM in experiment [3] (setting [9]).
Take `Cc1c([C@@H](C)Nc2ncnc3nc(Cl)c(N4CCN(C(C)C)CC4)cc23)cccc1C(F)(F)F` [Compound 395, (R)-7-chloro-6-(4-isopropylpiperazin-1-yl)-N-(1-(2-methyl-3-(trifluoromethyl)phenyl)ethyl)pyrido [2,3-d]pyrimidin-4-amine]: the IC50 in experiment [1] (setting [4]) is not above 1000 nM; in experiment [1] (setting [8]), less than 500 nM; in experiment [2] (setting [5]), less than 100 nM; in experiment [2] (setting [6]), less than 50 nM; in experiment [3] (setting [7]), not above 1000 nM; in experiment [3] (setting [9]) it was less than 500 nM.
Take `COc1nc2nc(OC3CN(C(C)C)C3)nc(N[C@H](C)c3cccc(C(F)F)c3F)c2cc1C1(C#N)CC1` [Compound 240, (R)-1-(4-((1-(3-(difluoromethyl)-2-fluorophenyl)ethyl)amino)-2-((1-isopropylazetidin-3-yl)oxy)-7-methoxypyrido[2,3-d]pyrimidin-6-yl)cyclopropane-1-carbonitrile]: the IC50 in experiment [1] (setting [4]) is not above 1000 nM; in experiment [1] (setting [8]) it was less than 500 nM; in experiment [2] (setting [5]), 100 to 1000 nM; in experiment [3] (setting [7]), not above 1000 nM; in experiment [3] (setting [9]), less than 500 nM.
Consider `Cc1c([C@@H](C)Nc2ncnc3nc(Cl)c(N4CCS(=O)(=O)CC4)cc23)cccc1C(F)(F)F` [Compound 328, (R)-4-(7-chloro-4-((1-(2-methyl-3-(trifluoromethyl)phenyl)ethyl)amino)pyrido[2,3-d]pyrimidin-6-yl)thiomorpholine 1,1-dioxide], for which the IC50 in experiment [1] (setting [4]) was not above 1000 nM; in experiment [1] (setting [8]), less than 500 nM; in experiment [2] (setting [5]), less than 100 nM; in experiment [2] (setting [6]), less than 50 nM; in experiment [3] (setting [7]), not above 1000 nM; in experiment [3] (setting [9]) it was less than 500 nM.
On to `C[C@@H](Nc1ncnc2nc(OC3COC3)c(C3CCS(=O)(=O)CC3)cc12)c1cccc(C(F)F)c1F` [Compound 227, (R)-4-(4-((1-(3-(difluoromethyl)-2-fluorophenyl)ethyl)amino)-7-(oxetan-3-yloxy)pyrido[2,3-d]pyrimidin-6-yl)tetrahydro-2H-thiopyran 1,1-dioxide], for which the IC50 is not above 1000 nM in experiment [1] (setting [4]), less than 100 nM in experiment [2] (setting [5]), less than 50 nM in experiment [2] (setting [6]) and not above 1000 nM in experiment [3] (setting [7]).
Take `COc1nc2nc(C)nc(N[C@H](C)c3cccc(C(F)F)c3F)c2cc1C1(C#N)CCN(C)CC1` [Compound 128, (R)-4-(4-((1-(3-(difluoromethyl)-2-fluorophenyl)ethyl)amino)-7-methoxy-2-methylpyrido[2,3-d]pyrimidin-6-yl)-1-methylpiperidine-4-carbonitrile]: the IC50 in experiment [1] (setting [4]) is not above 1000 nM; in experiment [1] (setting [8]), less than 500 nM; in experiment [2] (setting [5]) it was less than 100 nM; in experiment [2] (setting [6]), less than 50 nM; in experiment [3] (setting [7]), not above 1000 nM.
Turning to `COc1nc2nc(C)nc(N[C@H](C)c3cccc(C(F)F)c3F)c2cc1C1CCS(=N)(=O)CC1` (stereo partly drawn) [Compound 153, 4-(4-(((R)-1-(3-(difluoromethyl)-2-fluorophenyl)ethyl)amino)-7-methoxy-2-methylpyrido[2,3-d]pyrimidin-6-yl)-1-iminohexahydro-1λ6-thiopyran 1-oxide], the IC50 is not above 1000 nM in experiment [1] (setting [4]); less than 500 nM in experiment [1] (setting [8]); less than 100 nM in experiment [2] (setting [5]); less than 50 nM in experiment [2] (setting [6]); not above 1000 nM in experiment [3] (setting [7]); less than 500 nM in experiment [3] (setting [9]).
Turning to `COc1nc2nc(C)nc(N[C@H](C)c3cccc(C(F)(F)F)c3F)c2cc1N1CCN(C)CC1` [Compound 349, (R)-N-(1-(2-fluoro-3-(trifluoromethyl)phenyl)ethyl)-7-methoxy-2-methyl-6-(4-methylpiperazin-1-yl)pyrido[2,3-d]pyrimidin-4-amine], the half-inhibitory concentration (IC50) in experiment [1] (setting [4]) was not above 1000 nM; in experiment [1] (setting [8]) it was less than 500 nM; in experiment [2] (setting [5]) it was less than 100 nM; in experiment [2] (setting [6]), less than 50 nM; in experiment [3] (setting [7]) it was not above 1000 nM; in experiment [3] (setting [9]), less than 500 nM.
`Cc1nc(N[C@H](C)c2cccc(C(F)F)c2F)c2cc(C3CCN(C(C)C)CC3)c(OC3COC3)nc2n1` [Compound 335, (R)-N-(1-(3-(difluoromethyl)-2-fluorophenyl)ethyl)-6-(1-isopropylpiperidin-4-yl)-2-methyl-7-(oxetan-3-yloxy)pyrido [2,3-d]pyrimidin-4-amine]: the IC50 in experiment [1] (setting [4]) was not above 1000 nM; in experiment [2] (setting [5]), less than 100 nM; in experiment [3] (setting [7]), not above 1000 nM.
Regarding `COCCOc1nc2nc(C)nc(N[C@H](C)c3cccc(C(F)F)c3F)c2cc1C1CCS(=N)(=O)CC1` (stereo partly drawn) [Compound 368, (R)-4-(4-((1-(3-(difluoromethyl)-2-fluorophenyl)ethyl)amino)-7-(2-methoxyethoxy)-2-methylpyrido[2,3-d]pyrimidin-6-yl)-1-iminohexahydro-1l6-thiopyran 1-oxide], the concentration for half-maximal inhibition (IC50) in experiment [1] (setting [4]) was 1000 to 10000 nM; in experiment [2] (setting [5]) it was less than 100 nM; in experiment [2] (setting [6]), less than 50 nM; in experiment [3] (setting [7]) it was not above 1000 nM; in experiment [3] (setting [9]), less than 500 nM.
For `Cc1nc(N[C@H](C)c2cccc(C(F)F)c2F)c2cc(N3CCN(C(C)C)CC3)c(OC3CNC3)nc2n1` [Compound 367, (R)-7-(azetidin-3-yloxy)-N-(1-(3-(difluoromethyl)-2-fluorophenyl)ethyl)-6-(4-isopropylpiperazin-1-yl)-2-methylpyrido[2,3-d]pyrimidin-4-amine], in that order: 1000 to 10000 nM, less than 100 nM, less than 50 nM, not above 1000 nM and less than 500 nM.
For `COc1nc2ncnc(N[C@H](C)c3cccc(C(F)F)c3F)c2cc1C1CCN(C(C)C)CC1` [Compound 189, (R)-N-(1-(3-(difluoromethyl)-2-fluorophenyl)ethyl)-6-(1-isopropylpiperidin-4-yl)-7-methoxypyrido[2,3-d]pyrimidin-4-amine], the IC50 is 1000 to 10000 nM in experiment [1] (setting [4]), less than 100 nM in experiment [2] (setting [5]) and not above 1000 nM in experiment [3] (setting [7]).
For the molecule `C[C@@H](Nc1ncnc2nc(Cl)c(C3CCS(=O)(=O)CC3)cc12)c1cccc(C(F)(F)F)c1F` [Compound 331, (R)-4-(7-chloro-4-((1-(2-fluoro-3-(trifluoromethyl)phenyl)ethyl)amino)pyrido[2,3-d]pyrimidin-6-yl)tetrahydro-2H-thiopyran 1,1-dioxide], the 50% inhibitory concentration (IC50) is not above 1000 nM in experiment [1] (setting [4]); less than 500 nM in experiment [1] (setting [8]); less than 100 nM in experiment [2] (setting [5]); less than 50 nM in experiment [2] (setting [6]); not above 1000 nM in experiment [3] (setting [7]); less than 500 nM in experiment [3] (setting [9]).
With `COc1nc2nc(C)nc(N[C@H](C)c3cccc(C(F)F)c3F)c2cc1C1(C#N)CC1` [Compound 101, 1-(4-((R)-1-(2-fluoro-3-(difluoromethyl)phenyl)ethylamino)-7-methoxy-2-methylpyrido[2,3-d]pyrimidin-6-yl)cyclopropanecarbonitrile], the IC50 in experiment [1] (setting [4]) was not above 1000 nM; in experiment [2] (setting [5]), less than 100 nM; in experiment [3] (setting [7]), not above 1000 nM.
Take `CCN1CCN(c2cc3c(N[C@H](C)c4cccc(C(F)(F)F)c4C)nc(C)nc3nc2OC)CC1` [Compound 350, (R)-6-(4-ethylpiperazin-1-yl)-7-methoxy-2-methyl-N-(1-(2-methyl-3-(trifluoromethyl)phenyl)ethyl)pyrido [2,3-d]pyrimidin-4-amine]: the IC50 in experiment [1] (setting [4]) is not above 1000 nM; in experiment [1] (setting [8]), less than 500 nM; in experiment [2] (setting [5]) it was less than 100 nM; in experiment [2] (setting [6]), less than 50 nM; in experiment [3] (setting [7]), not above 1000 nM; in experiment [3] (setting [9]), less than 500 nM.
Take `COCCOc1nc2nc(C)nc(N[C@H](C)c3cccc(C(F)F)c3OCCOC)c2cc1C1CCS(=O)(=O)CC1` [Compound 158, (R)-4-(4-((1-(3-(difluoromethyl)-2-(2-methoxyethoxy)phenyl)ethyl)amino)-7-(2-methoxyethoxy)-2-methylpyrido[2,3-d]pyrimidin-6-yl)tetrahydro-2H-thiopyran 1,1-dioxide]: the concentration for half-maximal inhibition (IC50) was not above 1000 nM in experiment [1] (setting [4]), less than 100 nM in experiment [2] (setting [5]) and 1000 to 10000 nM in experiment [3] (setting [7]).
Consider `COc1nc2nc(C)nc(N[C@H](C)c3cccc(C(F)(F)CO)c3F)c2cc1N1CCS(=O)(=O)CC1` [Compound 307, (R)-4-(4-((1-(3-(1,1-difluoro-2-hydroxyethyl)-2-fluorophenyl)ethyl)amino)-7-methoxy-2-methylpyrido[2,3-d]pyrimidin-6-yl)thiomorpholine 1,1-dioxide], for which the IC50 was not above 1000 nM in experiment [1] (setting [4]); less than 500 nM in experiment [1] (setting [8]); less than 100 nM in experiment [2] (setting [5]); less than 50 nM in experiment [2] (setting [6]); not above 1000 nM in experiment [3] (setting [7]).

These data come from patent US11648254B2 (Kumquat Biosciences Inc., priority 2021, dated 2023).
